# Measured values published in patent US11773086B2, “Fungal modulators” (TRUSTEES OF BOSTON UNIVERSITY, priority 2020, dated 2023).
# Legend:
# C. auris [1] = test: microbe, parasite or virus in culture; format: cell-based, Candida auris; conditions: 50 μM azoffluxin, Etest
# Protocol: FIGS. 2A-2E illustrate the above-described screening of the BU-CMD which identified azoffluxin as a fluconazole (FLC) potentiator against C. auris. […] Growth, as determined by optical density at 600 nm (OD600), is plotted in the presence of each CMD compound alone on the y-axis and in combination with FLC on the x-axis. Dotted lines represent 7-median absolute deviations from the median for each condition. […] FIG. 2B depicts the synergistic interactions. […] Growth was measured by the OD600 and normalized to the no drug control (see color bar). The fractional inhibitory concentration index (FICI) was calculated to determine the chemical interaction, with a value below 0.5 indicating synergy. […] FIG. 2D depicts FLC Etest strips in the presence and absence of 50 μM azoffluxin. A total of 1×10^6 C. auris cells were added to YPD agar plates, the E-test strip was added, and plates were incubated at 30° C. for 24 hours prior to imaging. FIG. 2. […] Dose-response assay where a two-fold dilution of azoffluxin was titered starting from 50 μM. Indicated titrations have a background concentration of FLC of 32 μg/mL, 4 μg/mL, 0.25 μg/mL, and 0.5 μg/mL for C. auris Ci6684 (Erg11Y132F), C. albicans (SN95), C. glabrata (BG2) or S. cerevisiae (BY4741), respectively. […] Dose response assays were incubated for 48 hours at 30° C. in RPMI. Growth in each well was plotted by the relative optical density to the respective no drug control (See color bar in FIG. 2B).
# Compound potency was assessed alone by dose response assays or in combination with another compound by dose-response matrixes in 96-well plates, or 384-well, flat-bottom, microtiter plates (Corning) as previously described. Plates were incubated at 30° C. for the indicated time period. Growth was quantified by measuring OD600 and corrected for medium background. All strains were assessed in biological duplicate experiments with technical duplicates. […] For dose-response matrixes fractional inhibitory concentration index at 90% growth inhibition (FICI90) was calculated as previously described. […]
# C. auris [2] = test: Dose-response of other antifungal compounds with or without 50 μM azoffluxin; format: cell-based, Candida auris; conditions: 48 hours, YPD
# Protocol: FIGS. 7A and 7B illustrates that azoffluxin potentiates intracellular acting compounds against C. auris, to a similar degree as deletion of CDR1. […] Cells were then imaged on the DIC and DsRed channels at equivalent exposure times as those in FIG. 5A. FIG. 7B depicts a dose response assays conducted with a C. auris parental strain in the absence and presence of 50 μM azoffluxin where indicated, as well as with a strain with the efflux pump gene CDR1 deleted. Indicated compounds were titered in a two-fold dilution on the x-axis. Growth was measured after 48 hours in YPD using OD600 and normalized to a no drug control well (see color bar).
# Compound potency was assessed alone by dose response assays or in combination with another compound by dose-response matrixes in 96-well plates, or 384-well, flat-bottom, microtiter plates (Corning) as previously described. Plates were incubated at 30° C. for the indicated time period. Growth was quantified by measuring OD600 and corrected for medium background. All strains were assessed in biological duplicate experiments with technical duplicates. Growth was normalized to untreated controls and plotted as a heat map using Java TreeView 1.1.6r4. For dose-response matrixes fractional inhibitory concentration index at 90% growth inhibition (FICI90) was calculated as previously described. […]
# [3] = Single dose plasma pharmacokinetic profile; format: in vivo, mice; conditions: mouse
smiles,measurement,setting,value
C=C(C)C[C@@H](O)COc1cc2c(cc1C1(c3cc4c(cc3OC[C@H](O)CC(=C)C)OCO4)C(=O)Nc3cc(F)ccc31)OCO2 [CMLD012336],fluconazole MIC in presence of azoffluxin,C. auris [1],16 µg/mL
same,reduction of fluconazole MIC,C. auris [1]; solid medium,> 16 fold
same,sensitivity to caspofungin and amphotericin B,C. auris [2],no impact on sensitivity
same,"sensitization to gepinacin, cerulenin, and cycloheximide",C. auris [2],to the same extent as CDR1 deletion
same,half-life,[3],2.6 h
